Test results published in the supplement of paper PMC10307832.

Tests used:
Test in all cases: relative viability (nuclei count vs DMSO), 5 days (fraction); higher = more cells survive
[1] = compound: O=C1NC(=O)[C@@H](c2cn3c4c(cccc24)CCC3)[C@@H]1c1c[nH]c2ccccc12 [Tivantinib] + N=C(N)NC(=N)NCCc1ccccc1 [Phenformin] (partner 250 µM)
Outline: (§1)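 Cells from lung cancer lines were seeded into 1536-well plates and, one day later, dosed by pin tool. Treatments were either a single drug or a fixed dose of an anchor drug with five library-drug doses (not always all listed) in √10 steps. After 5 days, nuclei were stained in a one-step fixation (final 0.05% Triton X-100, 1% formaldehyde, 1 ug/ml Hoechst) and counted on 4× images, and relative viability is the treated-to-vehicle nuclei ratio, as the median of duplicate plates.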

[2] = compound: O=C1NC(=O)[C@@H](c2cn3c4c(cccc24)CCC3)[C@@H]1c1c[nH]c2ccccc12 [Tivantinib] + NC(=O)Nc1cc(-c2cccc(F)c2)sc1C(=O)N[C@H]1CCCNC1 [AZD7762] (partner 0.2 µM)
Outline: as §1

[3] = compound: CC1(COc2ccc3c(c2)ncn3-c2ccc3cccc(N4CCC(N)CC4)c3n2)COC1 [Crenolanib] + O=C(CCCCCCC(=O)Nc1ccccc1)NO [Vorinostat] (partner 1 µM)
Outline: as §1

[4] = compound: CC1(COc2ccc3c(c2)ncn3-c2ccc3cccc(N4CCC(N)CC4)c3n2)COC1 [Crenolanib] + CC(C)C[C@H](NC(=O)[C@H](Cc1ccccc1)NC(=O)c1cnccn1)B(O)O [Bortezomib] (partner 0.002 µM)
Outline: as §1

Cell Line | relative viability ([1]; first compound 0.01 µM) | relative viability ([1]; first compound 0.03162 µM) | relative viability ([1]; first compound 0.1 µM) | relative viability ([1]; first compound 0.3162 µM) | relative viability ([2]; first compound 0.01 µM) | relative viability ([2]; first compound 0.03162 µM) | relative viability ([2]; first compound 0.1 µM) | relative viability ([2]; first compound 0.3162 µM) | relative viability ([3]; first compound 0.01 µM) | relative viability ([3]; first compound 0.1 µM) | relative viability ([3]; first compound 0.3162 µM) | relative viability ([3]; first compound 1 µM) | relative viability ([4]; first compound 0.01 µM) | relative viability ([4]; first compound 0.03162 µM) | relative viability ([4]; first compound 0.1 µM) | relative viability ([4]; first compound 0.3162 µM) | relative viability ([4]; first compound 1 µM) | relative viability ([3]; first compound 0.03162 µM)
EMC-BAC-2 | 0.566 | 0.453 | 0.528 | 0.528 | 1.14 | 1.09 | 1.08 | 1.22 | 0.47 | 0.485 | 0.447 | 0.303 | 1.19 | 1.03 | 1.01 | 1.18 | 1.01 | –
NCI-H3122 | 0.369 | 0.394 | 0.359 | 0.361 | 1.05 | 1.07 | 0.761 | 0.923 | 0.976 | 0.765 | 1.14 | 0.796 | 1.08 | 1.01 | 1.04 | 1.05 | 1.16 | 0.938
H3255 | 0.315 | 0.357 | 0.355 | – | 0.968 | 0.73 | 0.902 | – | 0.811 | 0.838 | 0.853 | 0.726 | 0.89 | 0.543 | 0.765 | 0.7 | 0.759 | 0.744
NCI-H1975 | 0.398 | 0.421 | 0.403 | 0.357 | 0.734 | 0.667 | 0.714 | – | 0.729 | 0.638 | 0.71 | 0.678 | 0.5 | 0.39 | 0.359 | 0.385 | 0.295 | 0.684
NCI-H647 | 0.583 | 0.476 | 0.437 | 0.619 | 0.509 | 0.314 | 0.445 | 0.585 | 0.631 | 0.366 | 0.679 | 0.722 | 1.03 | 0.94 | 0.974 | 1.16 | 0.888 | 0.66
NCI-H441 | 0.872 | 0.84 | 0.777 | 0.828 | 1.04 | 1.22 | 1.11 | 1.03 | 0.98 | 0.657 | 1 | 0.832 | 0.29 | – | 0.535 | 0.446 | 0.557 | 0.705
NCI-H1355 | 0.474 | 0.475 | 0.439 | 0.436 | 0.756 | 0.819 | 0.794 | 0.637 | 0.661 | 0.626 | 0.706 | 0.481 | 1.33 | 1.15 | 1.3 | 1.37 | 0.951 | 0.674
NCI-H23 | 0.732 | 0.886 | 0.749 | 0.792 | 0.283 | 0.23 | 0.319 | 0.336 | 0.722 | 0.621 | 0.517 | 0.459 | 0.892 | 1.2 | 0.865 | 1.16 | 0.696 | 0.565
LC-2-ad | 0.563 | 0.491 | 0.595 | 0.541 | 0.776 | 0.681 | 0.817 | 0.758 | 0.726 | 0.67 | 0.736 | 0.679 | 1.09 | 0.959 | 0.98 | 1.18 | 0.99 | 0.674
NCI-H650 | 0.47 | 0.387 | 0.448 | 0.479 | 1.17 | 0.818 | 1 | 1.21 | 0.408 | 0.468 | 0.368 | 0.417 | 0.944 | 0.767 | 0.769 | 0.855 | 0.68 | 0.42
NCI-H2087 | 0.446 | 0.456 | 0.473 | 0.472 | 1.28 | 1.47 | 1.12 | 1.32 | 0.657 | 0.968 | 0.664 | 0.877 | 0.885 | 0.74 | 0.917 | 0.865 | 0.947 | 0.779
NCI-H838 | 0.705 | 0.554 | 0.464 | 0.514 | 1 | 0.973 | 0.872 | 0.906 | 0.747 | 0.698 | 0.722 | 0.738 | 0.774 | 0.796 | 0.984 | 0.77 | 0.566 | 0.74
NCI-H460 | 0.532 | 0.509 | 0.474 | 0.563 | 0.513 | 0.739 | 0.517 | 0.64 | 0.743 | 0.688 | 1.16 | 0.768 | 1.05 | 1.2 | 1.01 | 1.6 | 0.954 | 0.701
LU99A | 0.852 | 0.805 | 0.804 | 0.942 | 0.318 | 0.356 | 0.307 | 0.278 | 0.58 | 0.43 | 0.501 | 0.455 | 1.23 | 1.28 | 0.983 | 1.34 | 1.05 | 0.576
NCI-H322M | 0.753 | 0.708 | 0.754 | – | 0.613 | 0.419 | 0.571 | – | 0.872 | 0.872 | 0.808 | 0.784 | 1.36 | 0.923 | 1.1 | 1.27 | 1.4 | 0.789
NCI-H727 | 0.636 | 0.409 | 0.393 | 0.584 | 0.535 | 0.421 | 0.551 | – | 1.35 | 1.06 | 1.32 | 1.07 | 0.905 | 0.92 | 0.821 | 0.869 | 0.991 | 1.31
NCI-H1755 | 0.591 | 0.591 | 0.589 | 0.666 | 0.457 | 0.476 | 0.47 | 0.424 | 0.739 | 0.662 | 0.903 | 0.832 | 1.03 | 0.993 | 1.01 | 0.967 | 0.909 | 0.941
HARA | 0.418 | 0.417 | 0.416 | 0.373 | 0.214 | 0.416 | 0.394 | 0.288 | 0.568 | 0.532 | 0.626 | 0.502 | 1.17 | 1.1 | 1.09 | 1.13 | 1.16 | 0.499
201T | 0.421 | 0.458 | 0.415 | 0.451 | 0.602 | 0.62 | 0.623 | 0.611 | 0.985 | 0.929 | 0.955 | 0.983 | 1.06 | 1.12 | 1.06 | 1.04 | 1.07 | 1
